Measured values: patent US12636238B2, “Hypochlorous acid-based eyelid cleansers” (OCuSOFT, Inc., priority 2023, dated 2026)
Read-outs that look alike come from different tables or passages of the source.

Assay: comparative stability of hypochlorous acid in the presence of various ingredients (free available chlorine, FAC)
Format: physicochemical
Description: Free available chlorine or free active chlorine (FAC) refers to the amount of chlorine that is available to disinfect or kill microorganisms. Importantly, FAC covers many forms of chlorine, such as hypochlorous acid and hypohalite anion, in addition to freely available chlorine. Measurement and quantification of FAC is typically accomplished by a titration or colorimetric method. In certain embodiments, the eyelid cleanser composition contains 10 to 300 ppm of free available chlorine (FAC).
Table 1 illustrates the comparative stability of hypochlorous acid in the presence of various ingredients. The inventors determined that only specific ingredients disclosed in the disclosed embodiments are compatible with hypochlorous acid. For example, after 7 days in solution with sodium laureth sulfate, the FAC concentration decreased by about 4% per day.

[1] = FAC, component 0.01 M, time 2 days
[2] = component tested at 0.01 M in hypochlorous acid solution, start
[3] = component tested at 0.50%, start
[4] = component tested at 0.5%^, start

CC(=O)O [Acetic Acid]
% change/day [1]: 2%
FAC End (component 0.01 M, time 2 days): 384.6 ppm
FAC Start [2]: 367.5 ppm

O=C(O)CC(O)(CC(=O)O)C(=O)O [Citric Acid]
% change/day [1]: −49%
FAC End (component 0.01 M, time 2 days): 5.1 ppm
FAC Start [2]: 188.9 ppm

CC(C)(CO)C(O)C(=O)NCCCO (centres unmarked) [DI-Panthenol]
% change/day (FAC, component 1%, time 3 days): −26%
FAC End (component 1%, time 3 days): 23 ppm
FAC Start (component tested at 1%, start): 101 ppm

CCCCCCCCCCO[C@@H]1O[C@H](CO)[C@@H](O)[C@H](O)[C@H]1O [Decyl Glucoside]
% change/day (FAC, component 1%, time 3 days): −100%
FAC End (component 1%, time 3 days): 0 ppm
FAC Start (component tested at 1%, start): 3 ppm
degradation of hypochlorous acid (observation) (in the presence of the component): immediate degradation

CCCCCCCCOC(=O)CC(C(=O)OCCCCCCCC)S(=O)(=O)O.[Na] (centres unmarked) [Dioctyl Sulfosuccinate Sodium]
% change/day (FAC, component 0.50%, time 10 days): −6%
% change/day (FAC, component 0.5%^, time 38 days): −1%
FAC End (component 0.50%, time 10 days): 113 ppm
FAC End (component 0.5%^, time 38 days): 194 ppm
FAC Start [3]: 289 ppm
FAC Start [4]: 289 ppm

OCC(O)CO [Glycerin]
% change/day (FAC, component 1%, time 3 days): −17%
FAC End (component 1%, time 3 days): 50 ppm
FAC Start (component tested at 1%, start): 102 ppm

CC(O)CO (centres unmarked) [Propylene Glycol]
% change/day (FAC, component 1%, time 3 days): −11%
FAC End (component 1%, time 3 days): 67 ppm
FAC Start (component tested at 1%, start): 99 ppm

CC(=O)[O-].[Na+] [Sodium Acetate]
% change/day: 2%
FAC End: 377 ppm
FAC Start: 362.1 ppm

O=C([O-])CC(O)(CC(=O)[O-])C(=O)[O-].[Na+].[Na+].[Na+] [Sodium Citrate]
% change/day [1]: −49%
FAC End (component 0.01 M, time 2 days): 2.6 ppm
FAC Start [2]: 125.1 ppm

O=P([O-])([O-])O.[Na+].[Na+] [Sodium Dibasic Phosphate]
% change/day [1]: 16%
FAC End (component 0.01 M, time 2 days): 331.1 ppm
FAC Start [2]: 250 ppm

CCCCCCCCCCCCOS(=O)(=O)[O-].[Na+] [Sodium Lauryl Sulfate]
% change/day (FAC, component 0.5%^, time 238 days): 0%
FAC End (component 0.5%^, time 238 days): 11 ppm
FAC Start [4]: 267 ppm

O=P([O-])(O)O.[Na+] [Sodium Monobasic Phosphate]
% change/day [1]: 2%
FAC End (component 0.01 M, time 2 days): 374.4 ppm
FAC Start [2]: 361.4 ppm

Polysorbate 20
% change/day (FAC, component 0.50%, time 2 days): −16%
FAC End (component 0.50%, time 2 days): 264.9 ppm
FAC Start [3]: 391 ppm

Sodium Laureth Sulfate
% change/day (FAC, component 0.5%^, time 7 days): −4%
FAC concentration decrease (after 7 days in solution): about 4 % per day
FAC End (component 0.5%^, time 7 days): 208 ppm
FAC Start [4]: 287 ppm
